Values after ≈ are worked out from the molar mass of the structure shown. Values joined by “and” are separate entries in the source; they are usually repeats but may differ in a detail not shown here. Equal entries are not always repeated. Where two headings read alike, the source gives them in different places.
Key:
[1] = system: SARS-CoV-2, isolate USA-WA1/2020; test: microbe, parasite or virus in culture; format: cell-based; conditions: for perc_max_measured: maximum measured response of dose series; for perc_min_measured: minimum measured response of dose series
[2] = in vitro; conditions: human
[3] = system: SARS-CoV-2; test: Antiviral effect in iPSC-derived pneumocyte system; format: cell-based; conditions: iPSC pneumocytes SARS-CoV-2 antiviral effect; for perc_max_measured: maximum measured response of dose series; for perc_min_measured: minimum measured response of dose series
[4] = molecular target: SARS-CoV-2 nsp3-mac1 (Severe acute respiratory syndrome coronavirus 2, UniProt P0DTD1); test: biochemical
[5] = iPSC pneumocytes cytotoxicity; format: cell-based; conditions: protocol iPSC pneumocytes cytotoxicity
Excerpt: (§1) Supplement media-1.zip/Cytotoxicity.csv, table | column: cc10; cc50; perc_min_measured; perc_max_measured

[6] = system: iPSC pneumocytes; test: iPSC pneumocytes cytotoxicity; format: cell-based; conditions: for perc_max_measured: highest measured response of the dose series; for perc_min_measured: lowest measured response of the dose series
Excerpt: as §1

[7] = system: HeLa-ACE2 cells; conditions: protocol HeLa-ACE2 cytotoxicity; for perc_max_measured: highest measured response of the dose series; for perc_min_measured: lowest measured response of the dose series
[8] = Hepatic microsomal stability, HLM; format: in vitro ADME, human; conditions: In vitro human liver microsomal stability; for perc_remaining_no_cofactor: no cofactor; for microsomal CLint: liver microsomes
[9] = In vitro kinetic solubility
[10] = Hepatic microsomal stability, MLM; format: in vitro ADME
[11] = system: MDR1; test: Permeability Papp (AB) MDR1/MDCKII; conditions: dog, MDCK-MDR1, papp_a_to_b_mean, In vitro MDR1-MDCKII permeability, A to B
[12] = Permeability Papp (AB) MDR1/MDCKII; conditions: In vitro MDR1-MDCKII permeability; for perc_recovery_a_to_b_mean: recovery A to B; for papp_a_to_b_mean: A to B
[13] = LogD; conditions: pH 7.4
[14] = in vitro; parameters: Cytotoxicity in iPSC-derived pneumocytes, CC50; conditions: human, ipsc-derived pneumocytes, read-out: 50.0
[15] = in vitro; conditions: human, hela-ace2 cells, 50.0
[16] = HeLa-ACE2 SARS-CoV-2 antiviral effect without P-gp inhibitor
[17] = Severe acute respiratory syndrome coronavirus 2, HeLa-ACE2 SARS-CoV-2 antiviral effect without P-gp inhibitor, read-out: ec50
[18] = Severe acute respiratory syndrome coronavirus 2, HeLa-ACE2 SARS-CoV-2 antiviral effect without P-gp inhibitor, read-out: ec90
[19] = Severe acute respiratory syndrome coronavirus 2
[20] = IC50, nsp3-mac1 activity, Figures 1-3 and text
[21] = protocol iPSC pneumocytes cytotoxicity
[22] = Severe acute respiratory syndrome coronavirus 2, HeLa-ACE2
[23] = In vitro mouse liver microsomal stability
[24] = In vitro kinetic solubility, ph 7.4
[25] = HeLa-ACE2 SARS-CoV-2 antiviral effect without P-gp inhibitor, read-out: ec50
[26] = HeLa-ACE2 SARS-CoV-2 antiviral effect without P-gp inhibitor, read-out: ec90
[27] = In vitro mouse liver microsomal stability, no cofactor

CC(C)C(Nc1ncnc2[nH]ccc12)c1ccc2c(c1)NC(=O)CO2 (centres unmarked) [ASAP-0008302]
perc_max_measured [1, 16]: 123.573% | perc_min_measured [1, 16]: 69.199% | EC50 [1, 17]: > 50 µM | EC90 [1, 18]: > 50 µM | CC50 [2]: > 50 µM | EC50 ([3]; Severe acute respiratory syndrome coronavirus 2, iPSC): > 50 µM | EC90 [3, 19]: > 50 µM | perc_max_measured [3]: 145.289% | perc_min_measured [3]: 92.172% | IC50 [4, 20]: 0.71 µM | CC50 [5]: > 50 µM | cc10 [6, 21]: > 50.0 µM | perc_max_measured [6, 21]: 98.455% | perc_min_measured [6, 21]: 82.288% | cc10 [7]: > 50.0 µM | perc_max_measured [7]: 107.359% | perc_min_measured [7]: 95.445%

CCNC(=O)c1cc2c(NC(c3ccc4c(c3)OCCO4)C(C)C)ncnc2[nH]1 (centres unmarked) [ASAP-0008444]
perc_remaining [8]: 21.0% | t_half [8]: 19.7 min | perc_remaining_no_cofactor [8]: 103.0% | microsomal CLint [8]: 85 µL/min/mg | solubility ([9]; pH 7.4): 72 µM (≈ 28.5 µg/mL) | perc_max_measured [1, 16]: 122.873% and 94.861% | perc_min_measured [1, 16]: 70.184% and 54.623% | EC50 [1, 22]: > 20 µM | EC90 [1, 22]: > 20 µM | CC50 [2]: > 20 µM | perc_remaining [10, 23]: 24.0% | t_half [10, 23]: 19.0 min | perc_remaining_no_cofactor ([10]; In vitro mouse liver microsomal stability; no cofactor): 109.0% | microsomal CLint ([10]; liver microsomes; In vitro mouse liver microsomal stability): 88 µL/min/mg | EC50 [3, 19]: 41.1 µM | EC90 [3, 19]: > 50 µM | perc_max_measured [3]: 136.848% | perc_min_measured [3]: 15.577% | IC50 [4, 20]: 0.24 µM | increase in potency relative to the starting point ([4]; relative to ASAP-000450): 10 x | perc_max_measured [6, 21]: 91.985% | perc_min_measured [6, 21]: 70.899% | perc_max_measured [7]: 101.322% and 84.588% | perc_min_measured [7]: 64.265% and 70.325% | Papp A→B ([11]; mean): 2.41 ×10⁻⁶ cm/s | perc_recovery_a_to_b_mean ([12]; mean): 85.8% | logd [13]: 3

CC(C)(C)[C@@H](Nc1ncnc2[nH]c(-c3cnn(CC(N)=O)c3)cc12)c1ccc2c(n1)OCCO2 [ASAP-0011162]
clint [8]: 42.0 µL/min/mg | perc_remaining [8]: 49.0% | t_half [8]: 39.8 min | perc_remaining_no_cofactor [8]: 107.0% | solubility_mean [9, 24]: 390 µM (≈ 180 µg/mL) | perc_max_measured [1, 16]: 115.43% | perc_min_measured [1, 16]: 93.464% | EC50 [1, 25]: > 20 µM | EC90 [1, 26]: > 20 µM | clint [10, 23]: 30.0 µL/min/mg | perc_remaining [10, 23]: 59.0% | t_half [10, 23]: 56.2 min | perc_remaining_no_cofactor [10, 27]: 109.0% | EC50 [3]: 11.4 µM | EC90 [3]: > 50 µM | perc_max_measured [3]: 91.919% | perc_min_measured [3]: 11.328% | CC50 [6]: > 50 µM | cc10 [6]: > 50.0 µM | perc_max_measured [6]: 104.975% | perc_min_measured [6]: 91.59% | CC50 [7]: > 20 µM | cc10 [7]: > 20.0 µM | perc_max_measured [7]: 99.27% | perc_min_measured [7]: 66.005% | CC50 ([14]; ASAP-0008327-001=ASAP-0011162-001): > 50 µM | papp_a_to_b_mean ([12]; mean): 1.53 ×10⁻⁶ cm/s | perc_recovery_a_to_b_mean ([12]; mean): 75.9% | logd ([13]; In vitro LogD): 2.9 | CC50 at 24 h [15]: > 20 µM

CNCc1cc(-c2cc3c(N[C@@H](c4ccc5c(c4)S(=O)(=O)NCC5)C(C)C)ncnc3[nH]2)co1 [ASAP-0011243]
clint [8]: 46.0 µL/min/mg | perc_remaining [8]: 47.0% | t_half [8]: 35.9 min | perc_remaining_no_cofactor [8]: 93.0% | solubility_mean [9, 24]: 372 µM (≈ 179 µg/mL) | perc_max_measured [1, 16]: 99.818% | perc_min_measured [1, 16]: 81.688% | EC50 [1, 25]: > 20 µM | EC90 [1, 26]: > 20 µM | clint [10, 23]: 42.0 µL/min/mg | perc_remaining [10, 23]: 49.0% | t_half [10, 23]: 40.0 min | perc_remaining_no_cofactor [10, 27]: 95.0% | EC50 [3]: 30.7 µM | EC90 [3]: > 50 µM | perc_max_measured [3]: 102.14% | perc_min_measured [3]: 30.967% | CC50 [6]: > 50 µM | cc10 [6]: > 50.0 µM | perc_max_measured [6]: 101.3% | perc_min_measured [6]: 90.486% | CC50 [7]: > 20 µM | cc10 [7]: > 20.0 µM | perc_max_measured [7]: 96.42% | perc_min_measured [7]: 81.709% | CC50 ([14]; ASAP-0008327-001=ASAP-0011243-001): > 50 µM | papp_a_to_b_mean ([12]; mean): 1.2 ×10⁻⁶ cm/s | perc_recovery_a_to_b_mean ([12]; mean): 76.5% | logd ([13]; In vitro LogD): 1.9 | CC50 at 24 h [15]: > 20 µM

CCNC(=O)c1cc2c(NC(c3ccc4c(c3)S(=O)(=O)CCC4)C(C)C)ncnc2[nH]1 (centres unmarked) [ASAP-0012349]
perc_remaining [8]: 0.0% | t_half [8]: 1.9 min | perc_remaining_no_cofactor [8]: 102.0% | microsomal CLint ([8]; human): 892 µL/min/mg | solubility ([9]; pH 7.4, solubility_mean, In vitro kinetic solubility, ph 7.4): 316 µM (≈ 140 µg/mL) | perc_max_measured [1, 16]: 108.517% | perc_min_measured [1, 16]: 90.612% | EC50 [1, 17]: > 20 µM | EC90 [1, 18]: > 20 µM | CC50 [2]: > 20 µM | perc_remaining [10, 23]: 43.0% | t_half [10, 23]: 30.8 min | perc_remaining_no_cofactor [10, 27]: 114.0% | microsomal CLint ([10]; mouse, liver microsomes, In vitro mouse liver microsomal stability): 54 µL/min/mg | IC50 ([4]; HTRF IC50, Figure 4B, bioactive pure enantiomer): 0.031 µM | cc10 [7]: > 20.0 µM | perc_max_measured [7]: 99.328% | perc_min_measured [7]: 84.17% | Papp A→B ([11]; no inhibitor): 0.532 ×10⁻⁶ cm/s | perc_recovery_a_to_b_mean ([12]; no inhibitor): 66.9% | logd ([13]; pH 7.4, logd, In vitro LogD): 2.8
